Drawing on patent publication EP1974608A1, “Arylpyridazines as fungicides” (Bayer CropScience AG, priority 2007, dated 2008), this text covers chromatographic logP, logP and Wirkungsgrad for ten compounds.

The term logP denotes a log measure of how a compound divides between an organic and an aqueous phase. Low values mean a more hydrophilic compound, high ones a more lipophilic compound.

Series [1] is described as follows: logP determination by reversed-phase HPLC (C18), EEC Directive 79/831 Annex V.A8. Type of series: physicochemical.
Series [2] concerns Alternaria solani. The experiment in a line: Alternaria test (tomato) / protective. Type of series: in vivo. The settings on record: 500ppm Wirkstoff; protective spray on young tomato plants; evaluated 7 days after inoculation. The text has this: Alternaria-Test (Tomate) / protektiv
(§1) Zur Herstellung einer zweckmäßigen Wirkstoffzubereitung vermischt man 1 Gewichtsteil Wirkstoff mit den angegebenen Mengen Lösungsmittel und Emulgator und verdünnt das Konzentrat mit Wasser auf die gewünschte Konzentration.
Zur Prüfung auf protektive Wirksamkeit bespritzt man junge Tomatenpflanzen mit der Wirkstoffzubereitung in der angegebenen Aufwandmenge. 1 Tag nach der Behandlung werden die Pflanzen mit einer Sporensuspension von Alternaria solani inokuliert und stehen dann 24h bei 100% rel. Feuchte und 20°C. Anschließend stehen die Pflanzen bei 96% rel. Luftfeuchtigkeit und einer Temperatur von 20°C.
7 Tage nach der Inokulation erfolgt die Auswertung. Dabei bedeutet 0 % ein Wirkungsgrad, der demjenigen der Kontrolle entspricht, während ein Wirkungsgrad von 100 % bedeutet, dass kein Befall beobachtet wird.

For series [3], the system named is Venturia inaequalis. The experiment in a line: Venturia test (apple) / protective. The settings on record: 100ppm Wirkstoff; protective spray on young apple plants; evaluated 10 days after inoculation. Type of series: in vivo.
From the text: Venturia - Test (Apfel) / protektiv
as §1
Zur Prüfung auf protektive Wirksamkeit werden junge Pflanzen mit der Wirkstoff zubereitung in der angegebenen Aufwandmenge besprüht. Nach Antrocknen des Spritzbelages werden die Pflanzen mit einer wäßrigen Konidiensuspension des Apfelschorferregers Venturia inaequalis inokuliert und verbleiben dann 1 Tag bei ca. 20°C und 100% relativer Luftfeuchtigkeit in einer Inkubations-kabine.
Die Pflanzen werden dann im Gewächshaus bei ca, 21°C und einer relativen Luftfeuchtigkeit von ca. 90% aufgestellt.
10 Tage nach der Inokulation erfolgt die Auswertung. Dabei bedeutet 0% ein Wirkungsgrad, der demjenigen der Kontrolle entspricht, während ein Wirkungsgrad von 100% bedeutet, daß kein Befall beobachtet wird.

Setting [4] is: HPLC method of the footnote to Tabelle 1.
Where [5] appears, read: reversed-phase c18 hplc, HPLC, 40°C, 0.1% aqueous formic acid / acetonitrile gradient 10% to 95%, read-out: log p.

The structures appear in SMILES notation. Where two headings read alike, the source gives them in different places.

In the case of `CC(Br)C(=O)c1ccc(Cl)cc1` (stereo not shown) [2-Brom-1-(4-chlorphenyl)propan-1-on], the chromatographic logP in series [1] (reversed-phase c18 hplc, HPLC method of the footnote to Tabelle 1) was found to be 3.39.
Regarding `CC1(O)OC(=O)C(c2cccs2)=C1c1ccc(Cl)cc1` (stereo not shown) [4-(4-Chlorphenyl)-5-hydroxy-5-methyl-3-(2-thienyl)furan-2(5H)-on], the logP in series [1] (setting [4]) is listed as 3.05.
In series [1] (setting [4]), `Cc1n[nH]c(=O)c(-c2cccn2C)c1-c1ccc(Cl)cc1` [5-(4-Chlorphanyl)-4-(1-Methyl-1H-pyrrol-2-yl)-6-methylpyridazin-3(2H)-on] returned a logP of 2.45.
On the same count and under the same terms, the figure for `Cc1nc(-c2c(-c3ccc(Cl)cc3)c(C)n[nH]c2=O)cs1` [5-(4-Chlorphenyl)-4-(2-methyl-1,3-thiazol-4-yl)-6-methylpyridazin-3(2H)-on] is 2.26.
Still for that read-out and setting: under `Cc1n[nH]c(=O)c(-c2cccs2)c1-c1ccc(Cl)cc1` [5-(4-Chlorphenyl)-4-(2-thienyl)-6-methylpyridazin-3(2H)-on] stands 2.71.
Still for that read-out and setting: the figure for `Cc1n[nH]c(=O)c(-c2nc(Cl)c(Cl)s2)c1-c1ccc(Cl)cc1` [5-(4-Chlorphenyl)-4-(4,5-Dichlor-1,3-thiazol-2-yl)-6-methylpyridazin-3(2H)-on] is 3.94.
On to `Cc1nc(-c2c(Cl)nnc(C)c2-c2ccc(Cl)cc2)cs1` [Beispiel 26], for which the chromatographic logP in series [1] (setting [5]) was determined as 2.82.
Regarding `Cc1nnc(Cl)c(-c2cccn2C)c1-c1ccc(Cl)cc1` [Beispiel 27], the chromatographic logP in series [1] (setting [5]) was 3.24.
In the case of `Cc1nnc(Cl)c(-c2nc(Cl)c(Cl)s2)c1-c1ccc(Cl)cc1` [Beispiel 28], the chromatographic logP in series [1] (setting [5]) was found to be 4.32.
`Cc1nnc(Cl)c(-c2cccs2)c1-c1ccc(Cl)cc1` [Beispiel 29, 3-Chlor-5-(4-chlorphenyl)-4-(2-thienyl)-6-methylpyridazin]: the Wirkungsgrad in series [2] and in series [3] was at least 70% throughout. The chromatographic logP in series [1] (c18 reversed-phase hplc, HPLC method of the footnote to Tabelle 1) was found to be 3.41; in series [1] (setting [5]), 3.41.
